According to patent publication US11492335B2, “Aryl or heteroaryl triazolone derivatives or salts thereof, or pharmaceutical compositions comprising the same” (YUHAN CORPORATION, priority 2018, dated 2022):
Structures can show the parent of a compound that is named as a salt. Where two headings read alike, the source gives them in different places.

Legend:
Assay type in all cases: biochemical
[1] = target: T1, recombinant human MAO-A (monoamine oxidase-A) (Homo sapiens, UniProt P21397); assay: Activity on recombinant human MAO-A, Amplex Red method, 0.5 mM tyramine substrate; details: read-out: Inhibitory Activity (IC50, nM) MAO-A
T1 construct: purchased Sigma-Aldrich
T1 sequence (P21397 1-527): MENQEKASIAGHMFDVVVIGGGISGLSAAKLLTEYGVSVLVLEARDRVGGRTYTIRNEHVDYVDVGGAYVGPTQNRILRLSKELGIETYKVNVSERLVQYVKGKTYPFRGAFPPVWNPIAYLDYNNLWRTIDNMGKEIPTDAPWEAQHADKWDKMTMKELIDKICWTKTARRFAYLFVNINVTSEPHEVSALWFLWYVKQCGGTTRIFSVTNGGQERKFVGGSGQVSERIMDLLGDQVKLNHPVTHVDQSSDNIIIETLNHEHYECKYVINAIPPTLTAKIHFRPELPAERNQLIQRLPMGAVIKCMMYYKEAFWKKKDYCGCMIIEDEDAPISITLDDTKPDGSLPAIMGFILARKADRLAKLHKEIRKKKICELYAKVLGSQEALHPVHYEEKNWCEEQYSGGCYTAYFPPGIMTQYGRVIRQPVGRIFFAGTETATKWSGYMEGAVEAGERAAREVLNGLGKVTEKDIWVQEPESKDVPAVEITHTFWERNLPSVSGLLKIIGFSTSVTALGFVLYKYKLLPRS
In short: (§1)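 Fluorescence (544/590 nm) of resorufin formed from Amplex Red by HRP and enzyme-generated H2O2 was followed over 1-2 h. Substrates were 0.5 mM tyramine for MAO-A and 1 mM benzylamine for MAO-B; compounds were preincubated with enzyme for 30 min at 37° C. IC50 came from four-parameter logistic fitting of signal-rate inhibition.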

[2] = target: T2, recombinant human MAO-B (monoamine oxidase-B) (Homo sapiens, UniProt P27338); assay: Activity on recombinant human MAO-B, Amplex Red method, 1 mM benzylamine substrate; details: read-out: Inhibitory Activity (IC50, nM) MAO-B
T2 construct: purchased Sigma-Aldrich
T2 sequence (P27338 1-520): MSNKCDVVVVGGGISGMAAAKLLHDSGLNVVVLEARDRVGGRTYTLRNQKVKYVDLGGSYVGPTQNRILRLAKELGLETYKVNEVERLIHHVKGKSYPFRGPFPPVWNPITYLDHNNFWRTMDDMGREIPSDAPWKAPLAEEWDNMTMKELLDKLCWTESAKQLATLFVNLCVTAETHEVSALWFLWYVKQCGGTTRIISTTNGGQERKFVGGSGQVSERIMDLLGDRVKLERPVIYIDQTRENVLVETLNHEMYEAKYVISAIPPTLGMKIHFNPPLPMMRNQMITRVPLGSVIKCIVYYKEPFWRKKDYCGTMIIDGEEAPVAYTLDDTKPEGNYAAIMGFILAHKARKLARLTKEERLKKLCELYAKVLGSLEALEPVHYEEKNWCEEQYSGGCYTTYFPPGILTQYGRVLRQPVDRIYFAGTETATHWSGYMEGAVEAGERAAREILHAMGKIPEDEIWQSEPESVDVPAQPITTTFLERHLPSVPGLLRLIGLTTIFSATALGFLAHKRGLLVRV
In short: as §1

[3] = target: T3, recombinant human DAO (diamine oxidase) (Homo sapiens, UniProt P19801); assay: Activity on recombinant human DAO, Amplex Red method, 1 mM putrescine substrate; details: recombinant human DAO, read-out: Inhibitory Activity (IC50, nM) DAO
T3 construct: purchased R&D systems
T3 sequence (P19801 20-751): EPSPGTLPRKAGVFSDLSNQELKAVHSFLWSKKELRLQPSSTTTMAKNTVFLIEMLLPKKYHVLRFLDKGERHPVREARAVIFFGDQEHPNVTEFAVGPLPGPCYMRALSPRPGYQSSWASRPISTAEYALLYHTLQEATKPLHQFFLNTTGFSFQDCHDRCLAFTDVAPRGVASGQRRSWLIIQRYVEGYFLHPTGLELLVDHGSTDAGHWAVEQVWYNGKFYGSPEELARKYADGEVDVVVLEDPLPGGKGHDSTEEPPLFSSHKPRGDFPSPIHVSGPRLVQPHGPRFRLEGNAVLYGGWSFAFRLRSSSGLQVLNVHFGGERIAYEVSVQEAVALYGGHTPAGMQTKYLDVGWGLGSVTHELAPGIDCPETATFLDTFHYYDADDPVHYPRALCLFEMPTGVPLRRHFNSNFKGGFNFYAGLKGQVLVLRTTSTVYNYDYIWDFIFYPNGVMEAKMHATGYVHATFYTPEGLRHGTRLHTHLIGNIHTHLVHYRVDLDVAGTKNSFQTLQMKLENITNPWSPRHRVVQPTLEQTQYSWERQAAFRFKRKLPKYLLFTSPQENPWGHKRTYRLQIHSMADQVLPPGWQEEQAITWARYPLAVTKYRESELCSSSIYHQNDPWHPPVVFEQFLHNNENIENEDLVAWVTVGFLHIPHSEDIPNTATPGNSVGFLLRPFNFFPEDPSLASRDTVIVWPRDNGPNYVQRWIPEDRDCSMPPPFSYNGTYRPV
In short: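 Inhibition of recombinant human DAO (diamine oxidase, R&D systems) was assessed with the Amplex Red Hydrogen Peroxide Assay Kit. Hydrogen peroxide produced from 1 mM putrescine was detected through an HRP-coupled reaction that converts Amplex Red into fluorescent resorufin, read at 544 nm excitation and 590 nm emission. IC50 values came from four-parameter logistic fits in GraphPad Prism.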

recombinant human VAP-1 = target: T4, recombinant human VAP-1 (Homo sapiens, UniProt Q16853); assay: Activity on recombinant human VAP-1, Amplex Red HRP-coupled hydrogen peroxide assay, benzylamine substrate; details: recombinant human VAP-1, benzylamine substrate, read-out: Inhibitory Activity (IC50, nM) human VAP-1
T4 construct: purchased R&D systems
T4 sequence (Q16853 1-763): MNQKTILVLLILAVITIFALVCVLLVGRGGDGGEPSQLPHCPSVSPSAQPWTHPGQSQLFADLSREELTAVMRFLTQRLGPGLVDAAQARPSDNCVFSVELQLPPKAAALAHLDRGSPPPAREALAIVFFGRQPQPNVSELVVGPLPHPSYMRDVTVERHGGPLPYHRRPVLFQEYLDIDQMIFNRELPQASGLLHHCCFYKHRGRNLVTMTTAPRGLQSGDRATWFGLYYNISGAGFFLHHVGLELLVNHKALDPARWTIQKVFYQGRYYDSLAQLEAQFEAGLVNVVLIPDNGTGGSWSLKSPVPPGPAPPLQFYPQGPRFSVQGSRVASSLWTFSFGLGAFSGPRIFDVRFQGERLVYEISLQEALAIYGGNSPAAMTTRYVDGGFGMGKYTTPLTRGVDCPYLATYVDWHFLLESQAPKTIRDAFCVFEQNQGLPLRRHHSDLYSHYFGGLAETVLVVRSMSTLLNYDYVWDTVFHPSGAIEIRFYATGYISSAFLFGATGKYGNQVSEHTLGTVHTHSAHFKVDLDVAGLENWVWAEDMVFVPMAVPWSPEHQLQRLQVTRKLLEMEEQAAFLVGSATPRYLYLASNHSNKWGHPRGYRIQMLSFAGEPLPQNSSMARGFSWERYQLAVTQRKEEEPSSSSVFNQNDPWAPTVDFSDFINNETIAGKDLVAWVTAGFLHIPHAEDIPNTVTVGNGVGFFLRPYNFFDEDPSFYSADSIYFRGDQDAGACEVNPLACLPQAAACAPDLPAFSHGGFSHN
In short: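 Fluorescence of resorufin formed from H2O2 (ex 544 nm, em 590 nm) was tracked for 1-2 h after adding 1 mM benzylamine, 200 uM Amplex Red and 1 U/mL HRP to enzyme pretreated with compound for 30 min at 37 °C. IC50 values derive from four-variable logistic fits.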

[4] = 1 mM putrescine, * = between 10 and 100 nM, ** = between 300 and 1000 nM

With `NC/C(=C\F)Cn1ncn(-c2cc(F)c(Br)c(F)c2)c1=O` [Example 20, 2-[(2E)-2-(aminomethyl)-3-fluoroprop-2-en-1-yl]-4-(4-bromo-3,5-difluorophenyl)-2,4-dihydro-3H-1,2,4-triazol-3-one hydrochloride] the IC50 ([1]; 0.5 mM tyramine) was > 100000 nM, the IC50 ([2]; 1 mM benzylamine) was > 10000 nM and the IC50 [3, 4] was 15 nM. The IC50 (recombinant human VAP-1; 30 min preincubation at 37° C.) was 2.2 nM.

In the case of `CC(=O)Nc1cc(-c2cccc(-n3cnn(C/C(=C/F)CN)c3=O)c2)ccn1` [Example 81, N-[4-(3-{1-[(2E)-2-(aminomethyl)-3-fluoroprop-2-en-1-yl]-5-oxo-1,5-dihydro-4H-1,2,4-triazol-4-yl}phenyl)pyridin-2-yl]acetamide hydrochloride], the IC50 ([1]; 0.5 mM tyramine) is reported as > 100000 nM, the IC50 ([2]; 1 mM benzylamine) is reported as 7520 nM and the IC50 [3, 4] is reported as < 100 nM. It also gave an IC50 (recombinant human VAP-1; 30 min preincubation at 37° C.) of 0.54 nM.

With `Cc1cc(-c2cccc(-n3cnn(C/C(=C/F)CN)c3=O)n2)cc2c1NC(=O)CC2` [Example 197, 6-(6-{1-[(2E)-2-(aminomethyl)-3-fluoroprop-2-en-1-yl]-5-oxo-1,5-dihydro-4H-1,2,4-triazol-4-yl}pyridin-2-yl)-8-methyl-3,4-dihydroquinolin-2(1H)-one hydrochloride] the IC50 ([1]; 0.5 mM tyramine substrate) was 81000 nM, the IC50 ([2]; 1 mM benzylamine substrate) was 250 nM and the IC50 ([3]; 1 mM putrescine substrate) was 2.6 nM. The IC50 (recombinant human VAP-1) was 0.08 nM.

In the case of `CS(=O)(=O)c1ccc(-c2cccc(-n3cnn(C/C(=C/F)CN)c3=O)c2)cc1` [Example 54, 2-[(2E)-2-(aminomethyl)-3-fluoroprop-2-en-1-yl]-4-[4′-(methylsulfonyl)biphenyl-3-yl]-2,4-dihydro-3H-1,2,4-triazol-3-one hydrochloride], the IC50 ([1]; 0.5 mM tyramine) is reported as > 100000 nM, the IC50 ([2]; 1 mM benzylamine) is reported as > 10000 nM and the IC50 [3, 4] is reported as < 100 nM. It also gave an IC50 (recombinant human VAP-1; 30 min preincubation at 37° C.) of 0.4 nM.

For `NC/C(=C\F)Cn1ncn(-c2cccc(-c3cccc(-c4ccc5c(c4)OCO5)c3)c2)c1=O` [Example 71, 2-[(2E)-2-(aminomethyl)-3-fluoroprop-2-en-1-yl]-4-[3′-(1,3-benzodioxol-5-yl)biphenyl-3-yl]-2,4-dihydro-3H-1,2,4-triazol-3-one hydrochloride], the IC50 ([1]; 0.5 mM tyramine) was 17300 nM, the IC50 ([2]; 1 mM benzylamine) was 240 nM and the IC50 [3, 4] was < 30 nM. For the same compound, the IC50 (recombinant human VAP-1; 30 min preincubation at 37° C.) was 1 nM.

For `NC/C(=C\F)Cn1ncn(-c2cccc(-c3c[nH]c4ccccc34)c2)c1=O` [Example 100, 2-[(2E)-2-(aminomethyl)-3-fluoroprop-2-en-1-yl]-4-[3-(1H-indol-3-yl)phenyl]-2,4-dihydro-3H-1,2,4-triazol-3-one hydrochloride], the IC50 ([1]; 0.5 mM tyramine) was 39300 nM, the IC50 ([2]; 1 mM benzylamine) was 162 nM and the IC50 [3, 4] was 27 nM. The IC50 (recombinant human VAP-1; 30 min preincubation at 37° C.) was 0.92 nM.

In the case of `NC/C(=C\F)Cn1ncn(-c2cccc(-c3ccc4cn[nH]c4c3)c2)c1=O` [Example 97, 2-[(2E)-2-(aminomethyl)-3-fluoroprop-2-en-1-yl]-4-[3-(1H-indazol-6-yl)phenyl]-2,4-dihydro-3H-1,2,4-triazol-3-one hydrochloride], the IC50 ([1]; 0.5 mM tyramine) is reported as 22500 nM, the IC50 ([2]; 1 mM benzylamine) is reported as > 10000 nM and the IC50 [3, 4] is reported as < 30 nM. The IC50 (recombinant human VAP-1; 30 min preincubation at 37° C.) was 0.68 nM.

`NC/C(=C\F)Cn1ncn(-c2cccc(-c3ccc(N4CCOCC4)c(Cl)c3)c2)c1=O` [Example 76, 2-[(2E)-2-(aminomethyl)-3-fluoroprop-2-en-1-yl]-4-[3′-chloro-4′-(morpholin-4-yl)biphenyl-3-yl]-2,4-dihydro-3H-1,2,4-triazol-3-one hydrochloride] was tested, and the IC50 ([1]; 0.5 mM tyramine) was > 100000 nM, the IC50 ([2]; 1 mM benzylamine) was > 10000 nM and the IC50 [3, 4] was < 100 nM. The IC50 (recombinant human VAP-1; 30 min preincubation at 37° C.) was 0.64 nM.

For `NC/C(=C\F)Cn1ncn(-c2ccc(-c3ccc(-c4nnc[nH]4)cc3)cc2F)c1=O` [Example 43, 2-[(2E)-2-(aminomethyl)-3-fluoroprop-2-en-1-yl]-4-[3-fluoro-4′-(4H-1,2,4-triazol-3-yl)biphenyl-4-yl]-2,4-dihydro-3H-1,2,4-triazol-3-one], the IC50 ([1]; 0.5 mM tyramine) was > 100000 nM, the IC50 ([2]; 1 mM benzylamine) was 196 nM and the IC50 [3, 4] was < 100 nM. It also gave an IC50 (recombinant human VAP-1; 30 min preincubation at 37° C.) of 0.62 nM.

For `NC/C(=C\F)Cn1ncn(-c2cccc(-c3ccc(N4CCNCC4)cc3)n2)c1=O` [Example 184, 2-[(2E)-2-(aminomethyl)-3-fluoroprop-2-en-1-yl]-4-{6-[4-(piperazin-1-yl)phenyl]pyridin-2-yl}-2,4-dihydro-3H-1,2,4-triazol-3-one hydrochloride], the IC50 ([1]; 0.5 mM tyramine substrate) was 14000 nM, the IC50 ([2]; 1 mM benzylamine substrate) was > 10000 nM and the IC50 ([3]; 1 mM putrescine substrate) was 110 nM. For the same compound, the IC50 (recombinant human VAP-1) was 1.4 nM.
